Values joined by “and” are separate entries in the source; they are usually repeats but may differ in a detail not shown here. Identical values can stand only once.
Tests used:
KnmB1 [1] = test: Hydrogen peroxide formation assay of KnmB1 and variants; type: biochemical, L. rhizosphaerae NEAU-A2; conditions: 30 °C, average of 3
Procedure: Hydrogen peroxide formation assay and NADPH oxidation
The hydrogen peroxide formed from KnmB1, KnmB2 and their variants were measured using the Hydrogen Peroxide Assay Kit (Beyotime Industrial Co. Ltd, Shanghai, China)4-5. 5–100 µL of enzyme reaction mixture was added to 100 µL of working reagent (S0038-1). The mixture was incubated for 30 min at 25 °C, at which time the absorbance at 560 nm was measured by NanoDrop 2000c (Fisher Scientific). […]
(§1) Spectral data for new compounds […]
Supplementary Figure 131. H2O2 generation and NADPH oxidation for KnmB2, KnmB1 and their variants. (a) Hydrogen peroxide formation of KnmB2 and variants. […]
(b) Hydrogen peroxide formation of KnmB1 and variants. Reaction conditions: 100 µL system containing 50 mM Tris-HCl buffer (pH 7.5), 1 mM NADPH, 16 μM KnmB2, 17 μM KnmB1 or variants, 0.1 mM compound 24,1 mM SAM, and 2 […]
(1 picture or pasted object on this page, not shown here) […]
μM KnmF at 30 °C for 3h. (c) Hydrogen peroxide formation of KnmB1 and variants.
Reaction conditions: 100µL system containing 50 mM Tris-HCl buffer (pH 7.5), 0.3 mM NADPH, and 6 μM KnmB1 or variants, or 0.1 mM 24 at 30 °C for 30 min. […]
(§2) 2 μM KnmB2 or variants, or 0.1 mM substrate 24/32. […]
(§3) Source data are provided as a Source Data file. […]

KnmB1 [2] = test: NADPH oxidation of KnmB1 and variants (340 nm); type: biochemical, L. rhizosphaerae NEAU-A2; conditions: KnmB1 + compound
Procedure: Hydrogen peroxide formation assay and NADPH oxidation […]
NADPH detection was carried out in the cuvette by NanoDrop 2000c (Fisher Scientific). NADPH signal at 340 nm was monitored in time using 6220 M–1 cm–1 as […]
as §1
Reaction conditions: 50 mM Tris-HCl buffer (pH 7.5), 0.15 mM NADPH, and 2 μM KnmB1 or KnmB2. (e) NADPH oxidation of KnmB1 and variants. (f) NADPH oxidation of KnmB1 in the presence 24/32/36. (g) NADPH oxidation of KnmB1 and variants in the presence 24. Reaction conditions (e-g) for KnmB1 and their variants: 50 mM Tris-HCl buffer (pH 7.5), 0.15 mM NADPH, and 6 μM KnmB1 or variants, or 0.1 mM substrate 24/32/36. […]
as §2, §3

COc1cc(-c2csc(CCCC(C)=O)n2)nc(C(N)=O)c1O [Compound 36]
hydrogen peroxide formation of KnmB1 (absorbance UV λ=560 nm), average value (KnmB1 [1]; Fig. S131b, 1 mM NADPH, 17 μM KnmB1, 0.1 mM compound, 3 h): 0.0940
hydrogen peroxide formation of KnmB1 (absorbance UV λ=560 nm), average value (KnmB1 [1]; Fig. S131c, 0.3 mM NADPH, 6 μM KnmB1, 0.1 mM compound, 30 min): 0.0678
NADPH oxidation of KnmB1 in the presence of compound (replicates 1, 2, 3) (KnmB1 [2]; Time 0): 0.0000 µM
NADPH oxidation of KnmB1 in the presence of compound, average value (KnmB1 [2]; Time 0): 0.0000 µM
NADPH oxidation of KnmB1 in the presence of compound (replicates 1, 2, 3) (KnmB1 [2]; Time 1): 2.6688 µM and 1.0450 µM and 0.7235 µM
NADPH oxidation of KnmB1 in the presence of compound, average value (KnmB1 [2]; Time 1): 1.4791 µM
NADPH oxidation of KnmB1 in the presence of compound (replicates 1, 2, 3) (KnmB1 [2]; Time 2): 3.7942 µM and 2.2669 µM and 1.4470 µM
NADPH oxidation of KnmB1 in the presence of compound, average value (KnmB1 [2]; Time 2): 2.5027 µM
NADPH oxidation of KnmB1 in the presence of compound (replicates 1, 2, 3) (KnmB1 [2]; Time 3): 3.7460 µM and 2.5241 µM and 4.3730 µM
NADPH oxidation of KnmB1 in the presence of compound, average value (KnmB1 [2]; Time 3): 3.5477 µM
NADPH oxidation of KnmB1 in the presence of compound (replicates 1, 2, 3) (KnmB1 [2]; Time 4): 4.9196 µM and 2.5241 µM and 5.4662 µM
NADPH oxidation of KnmB1 in the presence of compound, average value (KnmB1 [2]; Time 4): 4.3033 µM
NADPH oxidation of KnmB1 in the presence of compound (replicates 1, 2, 3) (KnmB1 [2]; Time 5): 4.7428 µM and 3.0064 µM and 5.6752 µM
NADPH oxidation of KnmB1 in the presence of compound, average value (KnmB1 [2]; Time 5): 4.4748 µM
NADPH oxidation of KnmB1 in the presence of compound (replicates 1, 2, 3) (KnmB1 [2]; Time 8): 5.8360 µM and 3.0064 µM and 8.0225 µM
NADPH oxidation of KnmB1 in the presence of compound, average value (KnmB1 [2]; Time 8): 5.6217 µM
NADPH oxidation of KnmB1 in the presence of compound (replicates 1, 2, 3) (KnmB1 [2]; Time 10): 7.2669 µM and 6.4791 µM and 10.8521 µM
NADPH oxidation of KnmB1 in the presence of compound, average value (KnmB1 [2]; Time 10): 8.1994 µM
NADPH oxidation of KnmB1 in the presence of compound (replicates 1, 2, 3) (KnmB1 [2]; Time 15): 7.5080 µM and 6.4791 µM and 13.8264 µM
NADPH oxidation of KnmB1 in the presence of compound, average value (KnmB1 [2]; Time 15): 9.2712 µM
NADPH oxidation of KnmB1 in the presence of compound (replicates 1, 2, 3) (KnmB1 [2]; Time 20): 10.4502 µM and 12.1865 µM and 17.0257 µM
NADPH oxidation of KnmB1 in the presence of compound, average value (KnmB1 [2]; Time 20): 13.2208 µM
NADPH oxidation of KnmB1 in the presence of compound (replicates 1, 2, 3) (KnmB1 [2]; Time 30): 12.4116 µM and 12.1865 µM and 21.2701 µM
NADPH oxidation of KnmB1 in the presence of compound, average value (KnmB1 [2]; Time 30): 15.2894 µM
NADPH oxidation of KnmB1 in the presence of compound (replicates 1, 2, 3) (KnmB1 [2]; Time 40): 13.9068 µM and 22.9261 µM and 27.0579 µM
NADPH oxidation of KnmB1 in the presence of compound, average value (KnmB1 [2]; Time 40): 21.2969 µM
NADPH oxidation of KnmB1 in the presence of compound (replicates 1, 2, 3) (KnmB1 [2]; Time 60): 18.0547 µM and 22.9261 µM and 35.3698 µM
NADPH oxidation of KnmB1 in the presence of compound, average value (KnmB1 [2]; Time 60): 25.4502 µM

— paper PMC9838390, “Discovery and biosynthesis of karnamicins as angiotensin converting enzyme inhibitors” (Nature Communications, 2023)
